Data as given in PubChem BioAssay AID248 (DTP/NCI, 2004).
Values joined by “and” are separate entries in the source; they are usually repeats but may differ in a detail not shown here. Equal entries are not always repeated. Toxic doses and inconclusive results are not listed.

System: L1210 leukemia ip in BDF1 mice, survival T/C
Assay: NCI In Vivo Anticancer Drug Screen. Data for tumor model L1210 Leukemia (intraperitoneal) in B6D2F1 (BDF1) mice
Details: endpoint: mean survival time, higher = longer survival
How it was run: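 Transplantable tumor model; survival measured in treated vs vehicle control mice. Value = treated/control.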

[1] = dose: 50.0 mg/kg/injection, schedule: Q04DX002 (ip), vehicle: Klucel (hydroxypropylcellulose) (HPC)
[2] = dose: 100.0 mg/kg/injection, schedule: Q04DX002 (ip), vehicle: Klucel (hydroxypropylcellulose) (HPC)

## CCCCCCCCCCCCOP(=S)(S)OCCCCCCCCCCCC (tested in a mixture with another compound)
dose: 25.0 mg/kg/injection, schedule: Q01DX009 (ip), vehicle: Klucel (hydroxypropylcellulose) (HPC)
  T/C: 94 % of control
dose: 25.0 mg/kg/injection, schedule: Q04DX002 (ip), vehicle: Klucel (hydroxypropylcellulose) (HPC)
  T/C: 87 % of control
dose: 50.0 mg/kg/injection, schedule: Q01DX009 (ip), vehicle: Klucel (hydroxypropylcellulose) (HPC)
  T/C: 91 % of control
[1]
  T/C: 90 % of control
[2]
  T/C: 99 % of control and 100 % of control

## CN(C)[C@@H]1C(=O)C(C(=O)NCNC(Cc2ccc(N(CCCl)CCCl)cc2)C(=O)O)=C(O)[C@@]2(O)C(=O)C3=C(O)c4c(O)cccc4[C@@](C)(O)[C@H]3C[C@@H]12 (stereo partly specified)
dose: 1.3 mg/kg/injection, schedule: Q01DX009 (ip), vehicle: other
  T/C: 114 % of control
dose: 4.69 mg/kg/injection, schedule: Q01DX009 (ip), vehicle: saline
  T/C: 121 % of control
dose: 5.0 mg/kg/injection, schedule: Q01DX001 (ip), vehicle: saline
  T/C: 96 % of control
dose: 6.6 mg/kg/injection, schedule: Q01DX009 (ip), vehicle: other
  T/C: 152 % of control
dose: 9.0 mg/kg/injection, schedule: Q01DX001 (ip), vehicle: saline
  T/C: 109 % of control
dose: 10.0 mg/kg/injection, schedule: Q01DX009 (ip), vehicle: other
  T/C: 173 % of control
dose: 18.0 mg/kg/injection, schedule: Q01DX009 (ip), vehicle: other
  T/C: 189 % of control
dose: 18.95 mg/kg/injection, schedule: Q01DX009 (ip), vehicle: saline
  T/C: 162 % of control
dose: 19.0 mg/kg/injection, schedule: Q01DX001 (ip), vehicle: saline
  T/C: 102 % of control
dose: 30.0 mg/kg/injection, schedule: Q01DX001 (ip), vehicle: other
  T/C: 156 % of control
dose: 37.5 mg/kg/injection, schedule: Q01DX009 (ip), vehicle: saline
  T/C: 166 % of control
dose: 38.0 mg/kg/injection, schedule: Q01DX001 (ip), vehicle: saline
  T/C: 123 % of control
dose: 44.0 mg/kg/injection, schedule: Q01DX001 (ip), vehicle: other
  T/C: 152 % of control and 164 % of control
dose: 67.0 mg/kg/injection, schedule: Q01DX001 (ip), vehicle: other
  T/C: 173 % of control
dose: 75.0 mg/kg/injection, schedule: Q01DX001 (ip), vehicle: saline
  T/C: 122 % of control
dose: 75.0 mg/kg/injection, schedule: Q01DX009 (ip), vehicle: saline
  T/C: 102 % of control
dose: 100.0 mg/kg/injection, schedule: Q01DX001 (ip), vehicle: other
  T/C: 191 % of control

## COc1ccc(C(=O)/C=C/c2ccc(N(C)C)cc2)cc1
dose: 37.5 mg/kg/injection, schedule: Q04DX003 (ip), vehicle: saline
  T/C: 95 % of control
dose: 75.0 mg/kg/injection, schedule: Q04DX003 (ip), vehicle: saline
  T/C: 90 % of control
dose: 150.0 mg/kg/injection, schedule: Q04DX003 (ip), vehicle: saline
  T/C: 89 % of control

## CC(=O)Nc1cc(NC(C)=O)cc([N+](=O)[O-])c1
dose: 50.0 mg/kg/injection, schedule: Q01DX009 (ip), vehicle: saline
  T/C: 96 % of control
dose: 100.0 mg/kg/injection, schedule: Q01DX009 (ip), vehicle: saline
  T/C: 105 % of control
dose: 100.0 mg/kg/injection, schedule: Q04DX003 (ip), vehicle: saline
  T/C: 94 % of control
dose: 200.0 mg/kg/injection, schedule: Q04DX003 (ip), vehicle: saline
  T/C: 102 % of control
dose: 400.0 mg/kg/injection, schedule: Q04DX003 (ip), vehicle: saline
  T/C: 100 % of control

## CN(/N=N/N(C)c1ccccc1)c1ccccc1
dose: 6.3 mg/kg/injection, schedule: Q01DX Z (sc), vehicle: carboxymethylcellulose (CMC)
  T/C: 102 % of control
dose: 12.5 mg/kg/injection, schedule: Q01DX Z (sc), vehicle: carboxymethylcellulose (CMC)
  T/C: 113 % of control
dose: 25.0 mg/kg/injection, schedule: Q01DX Z (sc), vehicle: carboxymethylcellulose (CMC)
  T/C: 105 % of control and 106 % of control
dose: 50.0 mg/kg/injection, schedule: Q01DX Z (sc), vehicle: carboxymethylcellulose (CMC)
  T/C: 102 % of control
dose: 100.0 mg/kg/injection, schedule: Q01DX001 (ip), vehicle: carboxymethylcellulose (CMC)
  T/C: 102 % of control
dose: 100.0 mg/kg/injection, schedule: Q01DX Z (sc), vehicle: carboxymethylcellulose (CMC)
  T/C: 104 % of control
dose: 150.0 mg/kg/injection, schedule: Q01DX Z (sc), vehicle: carboxymethylcellulose (CMC)
  T/C: 91 % of control
dose: 200.0 mg/kg/injection, schedule: Q01DX001 (ip), vehicle: carboxymethylcellulose (CMC)
  T/C: 102 % of control
dose: 300.0 mg/kg/injection, schedule: Q01DX Z (sc), vehicle: carboxymethylcellulose (CMC)
  T/C: 100 % of control
dose: 400.0 mg/kg/injection, schedule: Q01DX001 (ip), vehicle: carboxymethylcellulose (CMC)
  T/C: 98 % of control

## CC(=O)Oc1ccc(CCN(Cc2ccc3c(c2)OCO3)C(C)=O)cc1
[1]
  T/C: 97 % of control
[2]
  T/C: 91 % of control
dose: 200.0 mg/kg/injection, schedule: Q04DX002 (ip), vehicle: Klucel (hydroxypropylcellulose) (HPC)
  T/C: 97 % of control

## Cc1ccc(N=Nc2ccc(C)cc2NC(=O)Nc2ccccc2F)cc1
dose: 100.0 mg/kg/injection, schedule: Q01DX009 (ip), vehicle: Klucel (hydroxypropylcellulose) (HPC)
  T/C: 104 % of control
dose: 200.0 mg/kg/injection, schedule: Q01DX009 (ip), vehicle: Klucel (hydroxypropylcellulose) (HPC)
  T/C: 97 % of control
dose: 400.0 mg/kg/injection, schedule: Q01DX009 (ip), vehicle: Klucel (hydroxypropylcellulose) (HPC)
  T/C: 88 % of control
